Molecules are shown by their SMILES.

The test addresses T1, integrin α4β7 (Homo sapiens, UniProt P13612+P26010).
T1 sequence (P13612 34-977 limits assumed): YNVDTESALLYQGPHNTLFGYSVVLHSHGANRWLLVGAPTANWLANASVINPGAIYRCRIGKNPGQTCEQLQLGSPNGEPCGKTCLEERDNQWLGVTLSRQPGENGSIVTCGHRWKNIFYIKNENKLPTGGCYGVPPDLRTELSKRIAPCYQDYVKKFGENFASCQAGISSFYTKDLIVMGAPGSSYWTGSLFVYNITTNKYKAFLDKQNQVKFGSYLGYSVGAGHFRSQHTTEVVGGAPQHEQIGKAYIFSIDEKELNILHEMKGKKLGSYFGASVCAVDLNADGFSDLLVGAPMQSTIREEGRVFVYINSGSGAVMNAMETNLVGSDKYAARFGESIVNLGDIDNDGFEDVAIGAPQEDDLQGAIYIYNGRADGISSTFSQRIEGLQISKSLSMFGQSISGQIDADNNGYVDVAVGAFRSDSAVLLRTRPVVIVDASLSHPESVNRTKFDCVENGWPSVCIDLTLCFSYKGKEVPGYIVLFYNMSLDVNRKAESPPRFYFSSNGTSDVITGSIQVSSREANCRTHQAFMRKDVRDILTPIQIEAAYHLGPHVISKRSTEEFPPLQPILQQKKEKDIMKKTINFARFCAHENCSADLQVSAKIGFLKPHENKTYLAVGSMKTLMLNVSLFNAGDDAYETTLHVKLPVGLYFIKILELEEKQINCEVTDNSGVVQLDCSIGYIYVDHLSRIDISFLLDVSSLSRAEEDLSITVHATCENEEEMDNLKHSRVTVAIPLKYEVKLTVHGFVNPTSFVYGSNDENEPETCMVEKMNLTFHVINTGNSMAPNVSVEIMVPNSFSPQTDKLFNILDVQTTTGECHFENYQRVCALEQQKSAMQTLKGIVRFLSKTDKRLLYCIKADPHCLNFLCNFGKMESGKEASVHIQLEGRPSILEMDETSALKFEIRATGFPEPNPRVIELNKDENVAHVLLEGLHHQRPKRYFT
T1 sequence (P26010 20-723 limits assumed): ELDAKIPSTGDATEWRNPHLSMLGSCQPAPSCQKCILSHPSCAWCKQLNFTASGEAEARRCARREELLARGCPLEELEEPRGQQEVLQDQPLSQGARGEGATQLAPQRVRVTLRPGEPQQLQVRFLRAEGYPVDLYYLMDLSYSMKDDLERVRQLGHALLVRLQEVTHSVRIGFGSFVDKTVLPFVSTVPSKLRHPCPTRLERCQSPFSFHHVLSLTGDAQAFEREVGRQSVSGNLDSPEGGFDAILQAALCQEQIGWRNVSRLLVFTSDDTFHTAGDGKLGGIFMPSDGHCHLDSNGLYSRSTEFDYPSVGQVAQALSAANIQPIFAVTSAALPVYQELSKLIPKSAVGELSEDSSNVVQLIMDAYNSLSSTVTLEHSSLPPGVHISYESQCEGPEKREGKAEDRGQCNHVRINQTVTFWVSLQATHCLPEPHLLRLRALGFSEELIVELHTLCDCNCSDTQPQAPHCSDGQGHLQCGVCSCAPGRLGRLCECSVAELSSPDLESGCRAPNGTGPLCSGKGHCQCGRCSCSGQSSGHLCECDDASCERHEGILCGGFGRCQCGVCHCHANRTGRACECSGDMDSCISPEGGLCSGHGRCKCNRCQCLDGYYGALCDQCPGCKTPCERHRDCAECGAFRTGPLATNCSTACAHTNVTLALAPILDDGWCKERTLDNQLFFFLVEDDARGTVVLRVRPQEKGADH
The test is described as follows: Integrin α4β7—MAdCAM-1 competition assay (ELISA). In kind it is binding. The settings on record: ratio a4b1 ELISA IC50 / a4b7 ELISA IC50. The procedure: Integrin α4β7—MAdCAM-1 Competition Assay
The plate was incubated at 4° C. overnight. […] The plate was then incubated for 1 hour at room temperature. The plate was washed three times with wash buffer (50 mM Tris, 100 mM NaCl, 1 mM MnCl2, 0.05% Tween). To each well, 50 μl of compound diluted in assay buffer was added by transfer from a compound serial dilution plate. […] The plate was incubated at room temperature with shaking for 2 hours to reach binding equilibrium. Then the plate was washed three times in wash buffer and 100 μl anti-human IgG Fc specific-horseradish peroxidase (HRP) (Abcam, Ab97225) diluted at 1:2000 in assay buffer was added to each well. The plate was incubated at room temperature for 1 hour under agitation. The plates were then washed three times and 100 μl of 1,3′,5,5′-tetramethylbenxidie (TMB) was then added to each well.
For orientation: ELISA stands for enzyme-linked immunosorbent assay.

In the case of `CC(C)C[C@@H]1NC(=O)[C@H](Cc2c[nH]cn2)NC(=O)[C@@H]2CCCN2[C@H](C(=O)NC(C)(C)C)[C@@H](CSc2ccccc2)NC(=O)[C@H](C(C)C)NC(=O)[C@H](CC(=O)O)NC1=O` [Compound 2], the “Selectivity ELISA” value amounted to 1.697. The figure for `CC(C)C[C@@H]1NC(=O)[C@H](CCc2ccccc2)NC(=O)[C@@H]2CCCN2[C@H](C(=O)NC(C)(C)C)[C@H](C)NC(=O)[C@H]([C@@H](C)O)NC(=O)[C@H](CC(=O)O)NC1=O` [Compound 6] is 1.9; for `CC(C)C[C@@H]1NC(=O)[C@H](CC2CCCCC2)NC(=O)[C@@H]2CCCN2[C@H](C(=O)NC(C)(C)C)[C@H](C)NC(=O)[C@H]([C@@H](C)O)NC(=O)[C@H](CC(=O)O)NC1=O` [Compound 7] it is 1.6; for `CC[C@H](C)[C@@H]1NC(=O)[C@H](CC(=O)O)NC(=O)[C@H](CC(C)C)NC(=O)[C@H](Cc2c[nH]c3ccccc23)NC(=O)[C@@H]2CCCN2[C@H](C(=O)NC(C)(C)C)[C@H](C)NC1=O` [Compound 8] it is 0.9.

For `CC(C)C[C@@H]1NC(=O)[C@H](Cc2cccc3ccccc23)NC(=O)[C@@H]2CCCN2[C@H](C(=O)NC(C)(C)C)[C@H](C)NC(=O)[C@H]([C@@H](C)O)NC(=O)[C@H](CC(=O)O)NC1=O` [Compound 9], the “Selectivity ELISA” value worked out at 1.7. For `CC(C)C[C@@H]1NC(=O)[C@H](Cc2ccc3ccccc3c2)NC(=O)[C@@H]2CCCN2[C@H](C(=O)NC(C)(C)C)[C@H](C)NC(=O)[C@H]([C@@H](C)O)NC(=O)[C@H](CC(=O)O)NC1=O` [Compound 10], the “Selectivity ELISA” value was found to be 1.3. Take `CO[C@H](C)[C@@H]1NC(=O)[C@H](CC(=O)O)NC(=O)[C@H](CC(C)C)NC(=O)[C@H](Cc2ccccc2)NC(=O)[C@@H]2CCCN2[C@H](C(=O)NC(C)(C)C)[C@H](C)NC1=O` [Compound 40]: the “Selectivity ELISA” value was 1.9. As for `CCO[C@H](C)[C@@H]1NC(=O)[C@H](CC(=O)O)NC(=O)[C@H](CC(C)C)NC(=O)[C@H](Cc2ccccc2)NC(=O)[C@@H]2CCCN2[C@H](C(=O)NC(C)(C)C)[C@H](C)NC1=O` [Compound 41], the figure is 2.5; as for `CC(C)C[C@@H]1NC(=O)[C@H](Cc2cccnc2)NC(=O)[C@@H]2C[C@@H](O)CN2[C@H](C(=O)NC(C)(C)C)[C@H](C)NC(=O)[C@H]([C@@H](C)O)NC(=O)[C@H](CC(=O)O)NC1=O` [Compound 44], 2.3. As to `CC(C)C[C@@H]1NC(=O)[C@H](Cc2ccccc2)NC(=O)[C@@H]2C[C@@H](F)CN2[C@H](C(=O)NC(C)(C)C)[C@H](C)NC(=O)[C@H]([C@@H](C)O)NC(=O)[C@H](CC(=O)O)NC1=O` [Compound 45], the “Selectivity ELISA” value is 3.2. In the case of `CC(C)C[C@@H]1NC(=O)[C@H](Cc2ccc(-c3ccccc3)cc2)NC(=O)[C@@H]2C[C@@H](F)CN2[C@H](C(=O)NC(C)(C)C)[C@H](C)NC(=O)[C@H]([C@@H](C)O)NC(=O)[C@H](CC(=O)O)NC1=O` [Compound 46], the “Selectivity ELISA” value is 2.4. The figure for `CC(C)C[C@@H]1NC(=O)[C@H]2CCCCN2C(=O)[C@@H]2CCCN2[C@H](C(=O)NC(C)(C)C)[C@H](C)NC(=O)[C@H]([C@@H](C)O)NC(=O)[C@H](CC(=O)O)NC1=O` [Compound 51] is 3.3; for `CC(C)C[C@@H]1NC(=O)[C@H](Cc2ccc(O)cc2)NC(=O)[C@@H]2CCCN2[C@H](C(=O)NC(C)(C)C)[C@H](C)NC(=O)[C@H](C(C)(C)S)NC(=O)[C@H](CC(=O)O)NC1=O` [Compound 55] it is 1.1. The figure for `CC(C)C[C@@H]1NC(=O)[C@@H]2C[C@@H](OCc3ccccc3)CN2C(=O)[C@@H]2CCCN2[C@H](C(=O)NC(C)(C)C)[C@H](C)NC(=O)[C@H]([C@@H](C)O)NC(=O)[C@H](CC(=O)O)NC1=O` [Compound 57] is 2.5; for `CCC[C@@H]1NC(=O)[C@@H]2CCCN2[C@H](C(=O)NC(C)(C)C)[C@H](C)NC(=O)[C@H]([C@@H](C)O)NC(=O)[C@H](CC(=O)O)NC(=O)[C@H](CC(C)C)NC1=O` [Compound 71] it is 4.4; for `CC(C)C[C@@H]1NC(=O)[C@@H](CCCN(C)C)NC(=O)[C@@H]2CCCN2[C@H](C(=O)NC(C)(C)C)[C@H](C)NC(=O)[C@H]([C@@H](C)O)NC(=O)[C@H](CC(=O)O)NC1=O` [Compound 83] it is 6.9.

As for `CC(C)C[C@@H]1NC(=O)[C@H](C2CCCCC2)NC(=O)[C@@H]2CCCN2[C@H](C(=O)NC(C)(C)C)[C@H](C)NC(=O)[C@H]([C@@H](C)O)NC(=O)[C@H](CC(=O)O)NC1=O` [Compound 91], the “Selectivity ELISA” value stood at 14.5. Turning to `CC(C)C[C@@H]1NC(=O)[C@H](Cc2csc(-c3ccccn3)n2)NC(=O)[C@@H]2CCCN2[C@H](C(=O)NC(C)(C)C)[C@H](C)NC(=O)[C@H]([C@@H](C)O)NC(=O)[C@H](CC(=O)O)NC1=O` [Compound 95], the “Selectivity ELISA” value amounted to 2.4. As for `CC(C)C[C@@H]1NC(=O)[C@H](Cc2csc(-c3ccncc3)n2)NC(=O)[C@@H]2CCCN2[C@H](C(=O)NC(C)(C)C)[C@H](C)NC(=O)[C@H]([C@@H](C)O)NC(=O)[C@H](CC(=O)O)NC1=O` [Compound 97], the figure is 2.5; as for `CC(C)C[C@@H]1NC(=O)[C@H]2c3ccccc3CCN2C(=O)[C@@H]2CCCN2[C@H](C(=O)NC(C)(C)C)[C@H](C)NC(=O)[C@H]([C@@H](C)O)NC(=O)[C@H](CC(=O)O)NC1=O` [Compound 98], 2.7; as for `CC(C)C[C@@H]1NC(=O)C2(CCCC2)NC(=O)[C@H](Cc2ccc(O)cc2)NC(=O)[C@@H]2CCCN2[C@H](C(=O)NC(C)(C)C)[C@H](C)NC(=O)[C@H]([C@@H](C)O)NC(=O)[C@H](CC(=O)O)NC1=O` [Compound 104], 4.2. The figure for `CC(C)C[C@@H]1NC(=O)CN(C)C(=O)[C@H](Cc2cccc(I)c2)NC(=O)[C@@H]2CCCN2[C@H](C(=O)NC(C)(C)C)[C@H](C)NC(=O)[C@H]([C@@H](C)O)NC(=O)[C@H](CC(=O)O)NC1=O` [Compound 106] is 18.7. The figure for `CC(C)C[C@@H]1NC(=O)CN(C)C(=O)[C@H](Cc2ccc(I)cc2)NC(=O)[C@@H]2CCCN2[C@H](C(=O)NC(C)(C)C)[C@H](C)NC(=O)[C@H]([C@@H](C)O)NC(=O)[C@H](CC(=O)O)NC1=O` [Compound 107] is 16.0; for `CC(C)C[C@@H]1NC(=O)[C@@H](CCCCN)NC(=O)[C@H](Cc2ccc(-c3ccccc3)cc2)NC(=O)[C@@H]2CCCN2[C@H](C(=O)NC(C)(C)C)[C@H](C)NC(=O)[C@H]([C@@H](C)O)NC(=O)[C@H](CC(=O)O)NC1=O` [Compound 110] it is 21.3; for `CC(C)C[C@@H]1NC(=O)CN(C)C(=O)[C@H](Cc2ccc(-c3ccccc3)cc2)NC(=O)[C@@H]2CCCN2[C@H](C(=O)NC(C)(C)C)[C@H](C)NC(=O)[C@H]([C@@H](C)O)NC(=O)[C@H](CC(=O)O)NC1=O` [Compound 116] it is 8.4. With `CC(C)C[C@@H]1NC(=O)CN(C)C(=O)[C@H](Cc2cccc3ccccc23)NC(=O)[C@@H]2CCCN2[C@H](C(=O)NC(C)(C)C)[C@H](C)NC(=O)[C@H]([C@@H](C)O)NC(=O)[C@H](CC(=O)O)NC1=O` [Compound 117], the “Selectivity ELISA” value is 8.7.

(Values after patent US11072616B2, “Cyclic peptides targeting alpha-4-beta-7 integrin” (Zealand Pharma A/S, priority 2015, dated 2021).)
